From patent publication US12509424B2, “Compound and composition as PDGF receptor kinase inhibitor” (NIPPON SHINYAKU CO., LTD., priority 2019, dated 2025)
Where two headings read alike, the source gives them in different places.

Legend:
PDGFR-β = PDGFR-β (Homo sapiens (Human), UniProt P09619); test: PDGFR-β tyrosine kinase inhibitory action (HTRF KinEASE-TK); format: biochemical; conditions: PDGFR-β enzyme 1 ng/μL, 30° C. for 30 minutes; read-out: PDGF-β IC50
Method: (§1) 1. Preparation of Test Substance
This DMSO solution was diluted by 8 times with an assay buffer 1 (50 mM HEPES (pH 7.0), 0.02% NaN3, 0.01% Bovine Serum Albumin, 0.1 mM orthovanadate, 1 mM Dithiothreitol, 5 mM MgCl2, and 1 mM MnCl2) and further diluted by 5 times with an assay buffer 2 (50 mM HEPES (pH 7.0), 0.02% NaN3, 0.01% Bovine Serum Albumin, 0.1 mM orthovanadate, 1 mM Dithiothreitol, 5 mM MgCl2, 1 mM MnCl2, and 40 nM Supplemented Enzymatic Buffer (cisbio)).
2. Measurement of PDGFR-β Tyrosine Kinase Inhibitory Action
For the measurement, the HTRF KinEASE-TK kit from Cisbio Bioassays SAS was used. To a 384 well plate, the test substance solution was added at 4 μL each, then 2 μL of a PDGFR-β enzyme solution (final concentration of 1 ng/μL, Carna Biosciences, Inc.) and 4 μL of a substrate solution obtained by adding 0.6 μM ATP to TK substrate-3-biotin (cisbio) were added, and the solution was allowed to react at 30° C. for 30 minutes at a final concentration of the test substance being 0.01 to 10,000 nM.
Thereafter, 10 μL of a detection solution (cisbio) was added to each well and allowed to react at 30° C. for 1 hour. The fluorescence intensity was measured with a microplate reader (Spectra Max M5, Molecular device).
(§2) 3. Analysis of Measurement Results

[1] = tested on: pulmonary arterial smooth muscle cells; test: Suppression of proliferation of pulmonary arterial smooth muscle cells (PDGF-BB stimulation, BrdU); format: cell-based; conditions: healthy human derived pulmonary arterial smooth muscle cells, human PDGF-BB 10 ng/mL stimulation, BrdU uptake after 1 day, test substance final concentration 3 to 10,000 nM, read-out: Human normal PASMC proliferation suppression (PDGF stimulation_IC50)
Method: as §1
Furthermore, it was diluted by 50 times with distilled water.
2. Measurement of Suppression Action Against Proliferation of Pulmonary Arterial Smooth Muscle Cells
The day after healthy human derived pulmonary arterial smooth muscle cells were seeded onto a 96 well plate using a smooth muscle cell proliferation medium, the proliferation medium was replaced with a 0.1% FBS medium, and the cells were cultured for an additional day. A test substance solution was diluted by 10 times with a medium containing BrdU and human PDGF-BB (final concentration of 10 ng/mL, Sigma-Aldrich) and added to cells in equal amounts so as to reach a final concentration of 3 to 10,000 nM. Also, to the human PDGF-BB negative control, BrdU and 0.1% DMSO solution were added. After culturing for 1 day, the amount of BrdU taken up by the proliferating cells was measured using an anti-BrdU antibody.
as §2

PDGFR-β, sequence (P09619 33-1106): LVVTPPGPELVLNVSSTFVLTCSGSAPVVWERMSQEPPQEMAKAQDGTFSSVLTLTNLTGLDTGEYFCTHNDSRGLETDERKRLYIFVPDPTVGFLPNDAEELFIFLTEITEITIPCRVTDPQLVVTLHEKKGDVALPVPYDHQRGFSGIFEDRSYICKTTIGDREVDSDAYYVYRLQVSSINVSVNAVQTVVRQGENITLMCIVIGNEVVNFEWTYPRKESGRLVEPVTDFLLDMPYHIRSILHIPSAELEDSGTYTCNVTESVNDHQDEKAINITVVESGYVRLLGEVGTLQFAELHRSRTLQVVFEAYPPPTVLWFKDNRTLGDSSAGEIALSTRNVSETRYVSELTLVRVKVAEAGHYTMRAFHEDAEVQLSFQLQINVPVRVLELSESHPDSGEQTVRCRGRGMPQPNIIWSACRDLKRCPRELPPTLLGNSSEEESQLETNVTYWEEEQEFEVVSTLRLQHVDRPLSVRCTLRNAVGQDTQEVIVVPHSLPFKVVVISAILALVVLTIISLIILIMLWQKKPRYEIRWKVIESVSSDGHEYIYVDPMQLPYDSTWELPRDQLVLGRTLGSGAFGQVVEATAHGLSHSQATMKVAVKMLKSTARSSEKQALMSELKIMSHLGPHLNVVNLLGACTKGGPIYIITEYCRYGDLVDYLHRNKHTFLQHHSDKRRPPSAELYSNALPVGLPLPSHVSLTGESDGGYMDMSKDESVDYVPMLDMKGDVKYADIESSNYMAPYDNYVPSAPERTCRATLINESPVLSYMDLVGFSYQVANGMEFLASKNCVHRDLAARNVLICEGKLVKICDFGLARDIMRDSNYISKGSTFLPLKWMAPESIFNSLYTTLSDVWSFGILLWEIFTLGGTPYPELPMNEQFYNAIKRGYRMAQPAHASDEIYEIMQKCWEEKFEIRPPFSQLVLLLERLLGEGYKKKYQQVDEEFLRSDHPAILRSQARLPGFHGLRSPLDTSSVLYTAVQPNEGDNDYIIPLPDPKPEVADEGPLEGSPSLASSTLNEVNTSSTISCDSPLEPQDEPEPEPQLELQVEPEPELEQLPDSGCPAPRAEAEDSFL

Row | Structure (SMILES) | IC50 (PDGFR-β) [nM] | IC50 ([1]; PASMC, 24 h) [nM] | IC50 [1] [nM]
1 | Cc1ccc(C(=O)N[C@H]2CCCC[C@@H]2O)cc1NCc1cnc(Nc2ccccn2)nc1 [Example 126, N-[(1S,2S)-2-hydroxycyclohexyl]-4-methyl-3-[({2-[(pyridin-2-yl)amino]pyrimidin-5-yl}methyl)amino]benzamide] | 45 | 64 | –
2 | Cc1ccc(C(=O)N[C@H]2CCCC[C@@H]2O)cc1NCc1ccc(-n2ccnn2)nc1 [Example 140, N-[(1S,2S)-2-hydroxycyclohexyl]-4-methyl-3-({[6-(1H-1,2,3-triazol-1-yl)pyridin-3-yl]methyl}amino)benzamide] | 330 | 43 | –
3 | Cc1ncc(C(=O)N[C@H]2CCCC[C@@H]2O)cc1CNc1cncc(C#CC2CC2)c1 [Example 157, 5-({[5-(cyclopropylethynyl)pyridin-3-yl]amino}methyl)-N-[(1S,2S)-2-hydroxycyclohexyl]-6-methylpyridine-3-carboxamide] | 180 | 52 | –
4 | CCOc1cncc(C(=O)Nc2cc(C(=O)N[C@H]3CCCC[C@@H]3O)ccc2C)c1 [Example 50, 5-ethoxy-N-(5-{[(1S,2S)-2-hydroxycyclohexyl]carbamoyl}-2-methylphenyl)pyridine-3-carboxamide] | 61 | 270 | –
5 | O=C(N[C@H]1CCCC[C@@H]1O)c1ccc(F)c(CNc2cncc(-c3ncccn3)c2)c1 [Example 151, 4-fluoro-N-[(1S,2S)-2-hydroxycyclohexyl]-3-({[5-(pyrimidin-2-yl)pyridin-3-yl]amino}methyl)benzamide] | 170 | 250 | –
6 | CCN1CCN(Cc2cncc(/C(F)=C/c3cc(C(=O)N[C@H]4CCCC[C@@H]4O)ccc3C)c2)CC1 [Example 194, 3-[(Z)-2-{5-[(4-ethylpiperazin-1-yl)methyl]pyridin-3-yl}-2-fluoroethenyl]-N-[(1S,2S)-2-hydroxycyclohexyl]-4-methylbenzamide] | 35 | 74 | –
7 | O=C(N[C@H]1CCCC[C@@H]1O)c1ccc(F)c(/C=C(\F)c2cncc(NC3CCOCC3)c2)c1 [Example 185, 4-fluoro-3-[(Z)-2-fluoro-2-{5-[(oxan-4-yl)amino]pyridin-3-yl}ethenyl]-N-[(1S,2S)-2-hydroxycyclohexyl]benzamide] | 5.1 | 28 | –
8 | Cc1ccc(C(=O)NCC(O)C(C)(C)C)cc1/C=C(\F)c1cncc(CN2CCN(C)CC2)c1 (stereo not drawn) [Example 201, 3-[(Z)-2-fluoro-2-{5-[(4-methylpiperazin-1-yl)methyl]pyridin-3-yl}ethenyl]-N-(2-hydroxy-3,3-dimethylbutyl)-4-methylbenzamide] | 38 | 120 | –
9 | Cc1ccc(C(=O)N[C@H]2CCCC[C@@H]2O)cc1NCc1ccc(NCC2CC2)nc1 [Example 117, 3-[({6-[(cyclopropylmethyl)amino]pyridin-3-yl}methyl)amino]-N-[(1S,2S)-2-hydroxycyclohexyl]-4-methylbenzamide] | 79 | 230 | –
10 | O=C(N[C@H]1CCCC[C@@H]1O)c1ccc(F)c(/C=C(\F)c2cncc(N3CCOCC3)c2)c1 [Example 184, 4-fluoro-3-{(Z)-2-fluoro-2-[5-(morpholin-4-yl)pyridin-3-yl]ethenyl}-N-[(1S,2S)-2-hydroxycyclohexyl]benzamide] | 51 | 82 | –
11 | Cc1ccc(C(=O)N[C@H]2CCCC[C@@H]2O)cc1NC(=O)c1cncc(Oc2ncccn2)c1 [Example 52, N-(5-{[(1S,2S)-2-hydroxycyclohexyl]carbamoyl}-2-methylphenyl)-5-[(pyrimidin-2-yl)oxy]pyridine-3-carboxamide] | 77 | 420 | –
12 | O=C(N[C@H]1CCCC[C@@H]1O)c1ccc(Cl)c(OCc2cncc(-c3ncccn3)c2)c1 [Example 167, 4-chloro-N-[(1S,2S)-2-hydroxycyclohexyl]-3-{[5-(pyrimidin-2-yl)pyridin-3-yl]methoxy}benzamide] | 210 | 210 | –
13 | Cc1ccc(C(=O)N[C@H]2CCCC[C@@H]2O)cc1NCc1ccc(-c2ccccn2)nc1 [Example 118, 3-{[([2,2′-bipyridin]-5-yl)methyl]amino}-N-[(1S,2S)-2-hydroxycyclohexyl]-4-methylbenzamide] | 390 | 140 | –
14 | Cc1ccc(C(=O)N[C@H]2CCCC[C@@H]2O)cc1NCc1ccc(NC(C)C)nc1 [Example 134, N-[(1S,2S)-2-hydroxycyclohexyl]-4-methyl-3-[({6-[(propan-2-yl)amino]pyridin-3-yl}methyl)amino]benzamide] | 170 | 60 | –
15 | Cc1ccc(C(=O)N[C@H]2CCCC[C@@H]2O)cc1NC(=O)c1cncc(OCC2(C)CC2)c1 [Example 53, N-(5-{[(1S,2S)-2-hydroxycyclohexyl]carbamoyl}-2-methylphenyl)-5-[(1-methylcyclopropyl)methoxy]pyridine-3-carboxamide] | 12 | 71 | –
16 | Cc1ccc(C(=O)N[C@@H](CO)[C@@H](O)c2ccccc2)cc1C#Cc1cncc(Br)c1 [Example 76, 3-[(5-bromopyridin-3-yl)ethynyl]-N-[(1S,2S)-1,3-dihydroxy-1-phenylpropan-2-yl]-4-methylbenzamide] | 49 | 27 | –
17 | Cc1ccc(C(=O)N[C@H]2CCCC[C@@H]2O)cc1NC(=O)c1cncc(Oc2ccccn2)c1 [Example 51, N-(5-{[(1S,2S)-2-hydroxycyclohexyl]carbamoyl}-2-methylphenyl)-5-[(pyridin-2-yl)oxy]pyridine-3-carboxamide] | 61 | 180 | –
18 | Cc1ccc(C(=O)N[C@H]2CCCC[C@@H]2O)cc1CN(C)c1cncc(-c2ccccc2)c1 [Example 175, N-[(1S,2S)-2-hydroxycyclohexyl]-4-methyl-3-{[methyl(5-phenylpyridin-3-yl)amino]methyl}benzamide] | 24 | – | –
19 | COC1CC(C(=O)Nc2ccc(CNc3cc(C(=O)N[C@H]4CCCC[C@@H]4O)ccc3C)cn2)C1 (stereo partly drawn) [Example 138, N-[(1S,2S)-2-hydroxycyclohexyl]-3-{[(6-{[(1r,3r)-3-methoxycyclobutane-1-carbonyl]amino}pyridin-3-yl)methyl]amino}-4-methylbenzamide] | 16 | – | 51
20 | Cc1ncc(C(=O)N[C@H]2CCCC[C@@H]2O)cc1C#Cc1cncc(C2CC2)c1 [Example 73, 5-[(5-cyclopropylpyridin-3-yl)ethynyl]-N-[(1S,2S)-2-hydroxycyclohexyl]-6-methylpyridine-3-carboxamide] | 220 | 80 | –
21 | Cc1ccc(C(=O)N[C@H]2CCCC[C@@H]2O)cc1NCc1ccc(NC(=O)N2CCOCC2)nc1 [Example 127, N-{5-[(5-{[(1S,2S)-2-hydroxycyclohexyl]carbamoyl}-2-methylanilino)methyl]pyridin-2-yl}morpholine-4-carboxamide] | 63 | 45 | –
22 | Cc1ncc(C(=O)N[C@H]2CCCC[C@@H]2O)cc1/C=C(\F)c1cnc(N)nc1 [Example 190, 5-[(Z)-2-(2-aminopyrimidin-5-yl)-2-fluoroethenyl]-N-[(1S,2S)-2-hydroxycyclohexyl]-6-methylpyridine-3-carboxamide] | 110 | 110 | –
23 | Cc1ccc(C(=O)N[C@H]2CCCC[C@@H]2O)cc1NCc1cnc(NC2CCOCC2)nc1 [Example 132, N-[(1S,2S)-2-hydroxycyclohexyl]-4-methyl-3-[({2-[(oxan-4-yl)amino]pyrimidin-5-yl}methyl)amino]benzamide] | 72 | 73 | –
24 | CCN(Cc1cc(C(=O)N[C@H]2CCCC[C@@H]2O)ccc1C)c1cncc(-c2ccccc2)c1 [Example 176, 3-{[ethyl(5-phenylpyridin-3-yl)amino]methyl}-N-[(1S,2S)-2-hydroxycyclohexyl]-4-methylbenzamide] | 50 | – | –
25 | CC(=O)Nc1ccc(CNc2cc(C(=O)N[C@H]3CCCC[C@@H]3O)ccc2C)cn1 [Example 116, 3-{[(6-acetamidopyridin-3-yl)methyl]amino}-N-[(1S,2S)-2-hydroxycyclohexyl]-4-methylbenzamide] | – | 120 | –
26 | Cc1ccc(C(=O)N[C@H]2CCCC[C@@H]2O)cc1OC(C)c1cncc(-c2ccccc2)c1 (stereo partly drawn) [Example 172, N-[(1S,2S)-2-hydroxycyclohexyl]-4-methyl-3-[1-(5-phenylpyridin-3-yl)ethoxy]benzamide] | 190 | – | –
